Columns and labels:
[1] = tested on: GM1 production in Jurkat cells; experiment: cells; type: cell-based; conditions: Homo sapiens, Jurkat, 72 h
[2] = molecular target: T1, glucosylceramide synthase (GCS) (Homo sapiens, UniProt Q16739); experiment: GCS enzyme inhibition assay (A549 cell lysate, NBD C6-ceramide, HPLC fluorescence); type: biochemical; conditions: inhibitory activity against GCS, 37° C., 90 minutes
T1 construct: The obtained supernatant was used; host or cells: A549 cells (lysate supernatant after sonication)
T1 sequence (Q16739 1-394): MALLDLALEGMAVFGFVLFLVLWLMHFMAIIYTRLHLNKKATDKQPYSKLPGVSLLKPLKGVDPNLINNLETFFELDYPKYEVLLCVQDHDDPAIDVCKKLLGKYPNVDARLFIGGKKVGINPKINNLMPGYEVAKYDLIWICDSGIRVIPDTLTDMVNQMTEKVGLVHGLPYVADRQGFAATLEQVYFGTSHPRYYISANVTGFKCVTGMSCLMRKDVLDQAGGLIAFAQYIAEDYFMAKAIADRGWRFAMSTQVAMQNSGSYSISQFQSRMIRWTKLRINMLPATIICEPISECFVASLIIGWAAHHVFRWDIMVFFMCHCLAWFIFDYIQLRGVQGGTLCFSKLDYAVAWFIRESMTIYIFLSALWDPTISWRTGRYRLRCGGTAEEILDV
Summary of the method: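 Percent GCS activity was derived from the GlcCer share of Cer plus GlcCer areas, scaled from ibiglustat (0%) to DMSO (100%). Enzyme came from sonicated A549 lysate in 50 mM HEPES pH 7.3; 90 min incubation at 37° C, chloroform/methanol stop and extraction.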

Compound	IC50 [1] [nM]	IC50 [2] [nM]
CCOc1ccc2cc(-c3ccc4c(c3)OCC(C)(C)C4NC(=O)O[C@@H]3CN4CCC3CC4)ccc2c1 (stereo partly drawn) [Example 288, (S)-quinuclidin-3-yl (7-(6-ethoxynaphthalen-2-yl)-3,3-dimethylchroman-4-yl)carbamate]	0.7	1.11
O=C(NC1CCOc2cc(-c3ccc4c(c3)CCCO4)ccc21)O[C@@H]1CN2CCC1CC2 (stereo partly drawn) [Example 70, (S)-quinuclidin-3-yl [6,7′-bichroman]-4′-ylcarbamate]	5.78	0.59
COCCOc1cccc(-c2ccc3c(c2)OCC(C)(C)C3NC(=O)O[C@@H]2CN3CCC2CC3)c1 (stereo partly drawn) [Example 110, (S)-quinuclidin-3-yl (7-(3-(2-methoxyethoxy)phenyl)-3,3-dimethylchroman-4-yl)carbamate]	0.12	1.3
CC(C)Oc1ccc(-c2ccc3c(c2)OCC(C)(C)C3NC(=O)O[C@@H]2CN3CCC2CC3)cc1Cl (stereo partly drawn) [Example 167, (S)-quinuclidin-3-yl (7-(3-chloro-4-isopropoxyphenyl)-3,3-dimethylchroman-4-yl)carbamate]	3.28	0.71
CC1(C)COc2cc(-c3ccccc3OC(F)(F)F)ccc2C1NC(=O)O[C@@H]1CN2CCC1CC2 (stereo partly drawn) [Example 157, (S)-quinuclidin-3-yl (3,3-dimethyl-7-(2-(trifluoromethoxy)phenyl)chroman-4-yl)carbamate]	0.12	0.48
CC(C)c1ccc(-c2ccc3c(c2)OCC(C)(C)C3NC(=O)O[C@@H]2CN3CCC2CC3)cc1 (stereo partly drawn) [Example 174, (S)-quinuclidin-3-yl (7-(4-isopropylphenyl)-3,3-dimethylchroman-4-yl)carbamate]	1.37	0.35
CCOc1ccc(-c2ccc3c(c2)OCC(C)(C)C3NC(=O)O[C@@H]2CN3CCC2CC3)cc1F (stereo partly drawn) [Example 124, (S)-quinuclidin-3-yl (7-(4-ethoxy-3-fluorophenyl)-3,3-dimethylchroman-4-yl)carbamate]	4.47	0.75
CC1(C)COc2cc(-c3cnn(Cc4ccccc4)c3)ccc2C1NC(=O)O[C@@H]1CN2CCC1CC2 (stereo partly drawn) [Example 180, (S)-quinuclidin-3-yl (7-(1-benzyl-1H-pyrazol-4-yl)-3,3-dimethylchroman-4-yl)carbamate]	3.42	0.44
CCCCOc1cccc(F)c1-c1ccc2c(c1)OCC(C)(C)C2NC(=O)O[C@@H]1CN2CCC1CC2 (stereo partly drawn) [Example 143, (S)-quinuclidin-3-yl (7-(2-butoxy-6-fluorophenyl)-3,3-dimethylchroman-4-yl)carbamate]	1.46	0.78
CC1(C)COc2cc(-c3cc4ccccc4s3)ccc2C1NC(=O)O[C@@H]1CN2CCC1CC2 (stereo partly drawn) [Example 208, (S)-quinuclidin-3-yl (7-(benzo[b]thiophen-2-yl)-3,3-dimethylchroman-4-yl)carbamate]	2.47	1.41
O=C(NC1CCOc2cc(-c3cnc4ccccc4c3)ccc21)O[C@@H]1CN2CCC1CC2 (stereo partly drawn) [Example 55, (S)-quinuclidin-3-yl (7-(quinolin-3-yl)chroman-4-yl)carbamate]	22.3	3.58
Cc1ccc(-c2ccc3c(c2)OCC(C)(C)C3NC(=O)O[C@@H]2CN3CCC2CC3)c(F)c1 (stereo partly drawn) [Example 225, (S)-quinuclidin-3-yl (7-(2-fluoro-4-methylphenyl)-3,3-dimethylchroman-4-yl)carbamate]	1.7	0.45
O=C(NC1CCOc2cc(-c3ccc(C4CCOCC4)cc3)ccc21)O[C@@H]1CN2CCC1CC2 (stereo partly drawn) [Example 73, (S)-quinuclidin-3-yl (7-(4-(tetrahydro-2H-pyran-4-yl)phenyl)chroman-4-yl)carbamate]	28.2	1.47
CC1(C)COc2cc(-c3cccc(C(F)F)c3)ccc2C1NC(=O)O[C@@H]1CN2CCC1CC2 (stereo partly drawn) [Example 112, (S)-quinuclidin-3-yl (7-(3-(difluoromethyl)phenyl)-3,3-dimethylchroman-4-yl)carbamate]	0.55	0.53
COc1cc(-c2ccc3c(c2)OCC(C)(C)C3NC(=O)O[C@@H]2CN3CCC2CC3)ccn1 (stereo partly drawn) [Example 203, (S)-quinuclidin-3-yl (7-(2-methoxypyridin-4-yl)-3,3-dimethylchroman-4-yl)carbamate]	8.03	0.72
O=C(NC1CCOc2ccc(-c3cccc(OC(F)(F)F)c3)cc21)O[C@@H]1CN2CCC1CC2 (stereo partly drawn) [Example 95, (S)-quinuclidin-3-yl (6-(3-(trifluoromethoxy)phenyl)chroman-4-yl)carbamate]	513	19.8
O=C(NC1CCOc2cc(-c3ccc(Cl)cc3)ccc21)O[C@@H]1CN2CCC1CC2 (stereo partly drawn) [Example 14, (S)-quinuclidin-3-yl (7-(4-chlorophenyl)chroman-4-yl)carbamate]	42.1	9.67

Compound	IC50 [1] [nM]	IC50 [2] [nM]
CN1C(=O)COc2ccc(-c3ccc4c(c3)OCCC4NC(=O)O[C@@H]3CN4CCC3CC4)cc21 (stereo partly drawn) [Example 74, (S)-quinuclidin-3-yl (7-(4-methyl-3-oxo-3,4-dihydro-2H-benzo[b][1,4]oxazin-6-yl)chroman-4-yl)carbamate]	44.3	5.03
CC1(C)COc2cc(-c3ccc(F)cc3)c(F)cc2C1NC(=O)O[C@@H]1CN2CCC1CC2 (stereo partly drawn) [Example 331, (S)-quinuclidin-3-yl (6-fluoro-7-(4-fluorophenyl)-3,3-dimethylchroman-4-yl)carbamate]	3.7	0.36
O=C(NC1CCOc2cc(-c3ccccc3F)ccc21)O[C@@H]1CN2CCC1CC2 (stereo partly drawn) [Example 9, (S)-quinuclidin-3-yl (7-(2-fluorophenyl)chroman-4-yl)carbamate]	2.83	1.81
O=C(NC1CCOc2cc(-c3ccc4c(c3)OCCCO4)ccc21)O[C@@H]1CN2CCC1CC2 (stereo partly drawn) [Example 58, (S)-quinuclidin-3-yl (7-(3,4-dihydro-2H-benzo[b][1,4]dioxepin-7-yl)chroman-4-yl)carbamate]	21.2	2
COc1ccc(-c2cc3c(cc2F)C(NC(=O)O[C@@H]2CN4CCC2CC4)C(C)(C)CO3)c(F)c1 (stereo partly drawn) [Example 341, (S)-quinuclidin-3-yl (6-fluoro-7-(2-fluoro-4-methoxyphenyl)-3,3-dimethylchroman-4-yl)carbamate]	4.1	0.17
CN1CCOc2cc(-c3ccc4c(c3)OCC(C)(C)C4NC(=O)O[C@@H]3CN4CCC3CC4)ccc21 (stereo partly drawn) [Example 198, (S)-quinuclidin-3-yl (3,3-dimethyl-7-(4-methyl-3,4-dihydro-2H-benzo[b][1,4]oxazin-7-yl)chroman-4-yl)carbamate]	1.83	0.66
COc1ccc(-c2cc3c(cc2OC)C(NC(=O)O[C@@H]2CN4CCC2CC4)C(C)(C)CO3)cc1 (stereo partly drawn) [Example 355, (S)-quinuclidin-3-yl (6-methoxy-7-(4-methoxyphenyl)-3,3-dimethylchroman-4-yl)carbamate]	5.8	0.58
CN(C)c1ccc(-c2ccc3c(c2)OCC(C)(C)C3NC(=O)O[C@@H]2CN3CCC2CC3)cn1 (stereo partly drawn) [Example 251, (S)-quinuclidin-3-yl (7-(6-(dimethylamino)pyridin-3-yl)-3,3-dimethylchroman-4-yl)carbamate]	17.5	1.64
O=C(NC1CCOc2cc(-c3ccsc3)ccc21)O[C@@H]1CN2CCC1CC2 (stereo partly drawn) [Example 64, (S)-quinuclidin-3-yl (7-(thiophen-3-yl)chroman-4-yl)carbamate]	19.2	1.32
O=C(NC1CCSc2cc(-c3coc4ccccc34)ccc21)O[C@@H]1CN2CCC1CC2 (stereo partly drawn) [Example 328, (S)-quinuclidin-3-yl (7-(benzofuran-3-yl)thiochroman-4-yl)carbamate]	13.8	1.18
CC1(C)COc2ccc(-c3cccc(F)c3)cc2C1NC(=O)O[C@@H]1CN2CCC1CC2 (stereo partly drawn) [Example 101, (S)-quinuclidin-3-yl (6-(3-fluorophenyl)-3,3-dimethylchroman-4-yl)carbamate]	65.9	9.2
N#Cc1ccc(-c2ccc3c(c2)C(NC(=O)O[C@@H]2CN4CCC2CC4)CCO3)cc1 (stereo partly drawn) [Example 100, (S)-quinuclidin-3-yl (6-(4-cyanophenyl)chroman-4-yl)carbamate]	289	7.1
COc1ccc(-c2cc3c(cc2OC)C(NC(=O)O[C@@H]2CN4CCC2CC4)C(C)(C)CO3)c(C)c1 (stereo partly drawn) [Example 361, (S)-quinuclidin-3-yl (6-methoxy-7-(4-methoxy-2-methylphenyl)-3,3-dimethylchroman-4-yl)carbamate]	8.5	0.99
O=C(NC1CCOc2ccc(-c3cccc(Cl)c3)cc21)O[C@@H]1CN2CCC1CC2 (stereo partly drawn) [Example 89, (S)-quinuclidin-3-yl (6-(3-chlorophenyl)chroman-4-yl)carbamate]	216	6.63
CC1(C)COc2cc(-c3cccc(-c4ccccc4)c3)ccc2C1NC(=O)O[C@@H]1CN2CCC1CC2 (stereo partly drawn) [Example 154, (S)-quinuclidin-3-yl (7-([1,1′-biphenyl]-3-yl)-3,3-dimethylchroman-4-yl)carbamate]	0.41	0.74
CC1(C)COc2cc(/C=C/c3ccc(F)cc3)ccc2C1NC(=O)O[C@@H]1CN2CCC1CC2 (stereo partly drawn) [Example 293, (S)-quinuclidin-3-yl (7-((E)-4-fluorostyryl)-3,3-dimethylchroman-4-yl)carbamate]	3	1.23

From patent publication US12673944B2, “Compounds having inhibitory activity against glucosylceramide synthase or pharmaceutically acceptable salt thereof, processes for preparing the same, and pharmaceutical compositions comprising the same” (YUHAN CORPORATION, priority 2019, dated 2026)
